The inhibition is the share of the control response that was lost under treatment. Broadly, the IC50 is the concentration that inhibits the measured activity by half. What is called CC50 is the concentration at which the toxic effect on the cells reaches its halfway point. A higher CC50 goes with lower toxicity to the cells. As a reminder, the EC50 is the concentration at which the effect is half-maximal.

For data set [1], the system named is Human immunodeficiency virus 1. The data set is described as follows: Inhibition of HIV1 reverse transcriptase at 200 ug/mL.
A short description of data set [2]: Inhibition of HIV1 reverse transcriptase. More on the design: species or system Human immunodeficiency virus 1.
Data set [3] is described as follows: Cytotoxicity in human C8166 cells. Type of data set: cell-based.
A short description of data set [4]: Therapeutic index, Ratio of CC50 for human C8166 cells to EC50 for HIV1. The following applies: read-out: TI. Type of data set: cell-based.
Data set [5] deals with Human immunodeficiency virus 1. The data set is described as follows: Antiviral activity against HIV1 assessed as syncytium reduction. Type of data set: functional, organism-based.
Data set [6] has as its system Human immunodeficiency virus 1. Description: Inhibition of HIV1 reverse transcriptase at 20 ug/mL.

Active and inactive are the calls of the source. The rule behind the calls is not given here. A value given as a limit tells only on which side of the number the result lay.

In data set [1], `O=[N+]([O-])/C=C/c1ccco1` displayed an inhibition of 91.8%. The 50% inhibitory concentration (IC50) in data set [2] is 465 µM. In addition, the cytotoxic concentration (CC50) in data set [3] amounted to 28.9 µM.
`Cc1cc(C)c(/C=C/[N+](=O)[O-])cc1C`: the inhibition in data set [1] was 31.5%. The 50% cytotoxic concentration (CC50) in data set [3] came to 6.9 µM.
In data set [1], `COc1cc(OC)c(OC)cc1/C=C/[N+](=O)[O-]` gave an inhibition of 49.1%. The 50% inhibitory concentration (IC50) in data set [2] was over 837 µM. This compound also yielded a CC50 in data set [3] of 4.7 µM.
In the case of `CC(=O)N(C)/C=C/c1ccccc1Cl`, the inhibition in data set [1] was 75.2%. Besides, the selectivity ratio in data set [4] was 4.6. Moreover, in data set [5], the 50% effective concentration (EC50) was found to be 95.9 µM. Further, in data set [2], the 50% inhibitory concentration (IC50) came to 434 µM. This compound gave a CC50 in data set [3] of 441 µM.
With `CC(=O)N/C=C/c1ccccc1O`, the inhibition in data set [1] came to 10.1%.
The compound `O=[N+]([O-])/C=C/c1ccc(C(F)(F)F)cc1` showed an inhibition in data set [1] of 29.4%.
In the case of `CC(=O)N/C=C/c1ccco1`, in data set [1], the outcome was inactive.
In the case of `CC(=O)N/C=C/c1ccc(F)cc1`, in data set [1], the outcome was inactive.
`O=[N+]([O-])/C=C/c1ccccc1Br` came in with an inhibition in data set [1] of 95.7%. In data set [2], this compound returned an IC50 of 202 µM. Moreover, the midpoint of cytotoxicity in data set [3], the CC50, lay at 0.57 µM.
In turn, `O=[N+]([O-])/C=C/c1ccccc1Cl` registered an inhibition in data set [1] of 99.3%. In data set [2], this compound returned a half-inhibitory concentration (IC50) of 361 µM. The compound further came in with a CC50 in data set [3] of 3 µM.
In data set [1], `CC(=O)N/C=C/c1cccc2ccccc12` came in with an inhibition of 26.5%.
`CC(=O)N(C)/C=C/c1cccc(Br)c1` registered an inhibition in data set [1] of 45.4%. In addition, the selectivity ratio in data set [4] is 3.2. For the same compound, the EC50 in data set [5] is 128 µM. The compound further came in with an IC50 in data set [2] of 838 µM. In addition, the CC50 in data set [3] worked out at 409 µM.
In data set [1], `COc1ccc(/C=C/[N+](=O)[O-])c(OC)c1` returned an inhibition of 86.3%. For the same compound, in data set [2], it took 553 µM to reach half-maximal inhibition (IC50). Besides, in data set [3], the CC50 worked out at 5.4 µM.
Take `O=[N+]([O-])/C=C/c1ccccc1F`: the inhibition in data set [1] came to 95.4%. It took 365 µM to reach half-maximal inhibition in data set [2] (IC50). The same compound displayed a half-maximal cytotoxic concentration (CC50) in data set [3] of 2.8 µM.
In the case of `CC(=O)N/C=C/c1ccccc1F`, the inhibition in data set [1] came out at 36.2%. Also, in data set [4], the selectivity ratio is under 1. Moreover, the EC50 in data set [5] worked out at 383 µM. Besides, it took 341 µM to reach half-maximal cytotoxicity in data set [3] (CC50).
As to `CC(=O)N(C)/C=C/c1ccccc1Br`, the inhibition in data set [1] worked out at 85.3%. In data set [4], the selectivity ratio is over 13.2. The concentration for a half-maximal effect (EC50) in data set [5] was 59.8 µM. The compound also yielded a half-inhibitory concentration (IC50) in data set [2] of 339 µM. In addition, the 50% cytotoxic concentration (CC50) in data set [3] was over 787 µM.
As for `O=[N+]([O-])/C=C/c1ccc(F)cc1`, the inhibition in data set [1] was 22.9%.
Take `CC(=O)N/C=C/c1ccsc1`: in data set [1], the result was inactive.
With `O=C(O)P(=O)(O)O` [FOSCARNET], the inhibition in data set [6] is 96.5%. In data set [2], this compound registered an IC50 of 1.3 µM.
The compound `O=[N+]([O-])/C=C/c1ccc(O)cc1` showed an inhibition in data set [1] of 96.4%. In data set [2], this compound had a half-maximal inhibitory concentration (IC50) of 553 µM. The compound also gave a 50% cytotoxic concentration (CC50) in data set [3] of 15.8 µM.
In the same order, the values of `O=[N+]([O-])/C=C/c1ccccc1O` are 98.2%, 540 µM and 18.8 µM.
For `COc1ccc(/C=C/NC(C)=O)cc1`, in data set [1], the result was inactive.
`CC(=O)N/C=C/c1ccccc1C`: in data set [1], the inhibition is 40.1%. In data set [4], the selectivity ratio came to 1. Besides, in data set [5], the EC50 is 379 µM. The same compound showed a CC50 in data set [3] of 385 µM.
Regarding `COc1ccccc1/C=C/NC(C)=O`, the outcome in data set [1] was inactive.
As for `COc1ccc(/C=C/[N+](=O)[O-])cc1`, the inhibition in data set [1] amounted to 93.5%. Also, half-maximal inhibition in data set [2] (IC50) required 561 µM. This compound yielded a CC50 in data set [3] of 6.3 µM.
As to `CC(=O)N(C)/C=C/c1ccccc1F`, the inhibition in data set [1] was 61.7%. In addition, the selectivity ratio in data set [4] is 5.6. Moreover, the EC50 in data set [5] is 119 µM. In data set [2], this compound yielded an IC50 of 477 µM. The compound also gave a 50% cytotoxic concentration (CC50) in data set [3] of 667 µM.
Turning to `COc1ccc(/C=C/NC(C)=O)c(OC)c1`, the outcome in data set [1] was inactive.
Compound `O=[N+]([O-])/C=C/c1cccc(Br)c1` gave an inhibition in data set [1] of 13.4%.
Consider `CC(=O)N/C=C/c1ccc(Cl)cc1`, for which, in data set [1], the outcome was inactive.
As to `CC(=O)N/C=C/c1ccc(Br)cc1`, the outcome in data set [1] was inactive.
Consider `CC(=O)N/C=C\c1ccsc1`, for which the inhibition in data set [1] stood at 12%.
As for `CC(=O)N(C)/C=C/c1ccc(Br)cc1`, the outcome in data set [1] was inactive.
In turn, `CC(=O)N/C=C/c1cccc(Br)c1` came in with an inhibition in data set [1] of 41.5%. Besides, the selectivity ratio in data set [4] was 1.5. Further, the concentration for a half-maximal effect (EC50) in data set [5] is 89.3 µM. This compound also displayed a CC50 in data set [3] of 134 µM.
Compound `O=[N+]([O-])/C=C/c1ccc2ccccc2c1` showed an inhibition in data set [1] of 58.8%. In data set [2], this compound returned a half-inhibitory concentration (IC50) of 935 µM. This compound also came in with a CC50 in data set [3] of 40.6 µM.
In data set [1], `O=[N+]([O-])/C=C/c1ccc(Cl)cc1` yielded an inhibition of 19.8%.
`O=[N+]([O-])/C=C/c1ccccc1` [(2-NITROVINYL)BENZENE]: in data set [1], the inhibition worked out at 99.7%. Also, inhibition in data set [2] was half-maximal at 87.9 µM (IC50). In data set [3], this compound registered a CC50 of 13.6 µM.
For the compound `Cc1ccccc1/C=C/[N+](=O)[O-]`, in data set [1], the inhibition worked out at 99.2%. For the same compound, the midpoint of inhibition in data set [2], the IC50, lay at 261 µM. For the same compound, it took 7.4 µM to reach half-maximal cytotoxicity in data set [3] (CC50).
For the compound `Cc1cn([C@H]2C[C@H](N=[N+]=[N-])[C@@H](CO)O2)c(=O)[nH]c1=O` [ZIDOVUDINE], the selectivity ratio in data set [4] was over 471000. The EC50 in data set [5] stood at 0.0108 µM. Further, in data set [3], the CC50 is over 5090 µM.
With `O=[N+]([O-])/C=C/c1ccsc1`, the inhibition in data set [1] was found to be 86.2%. Further, the IC50 in data set [2] was 709 µM. This compound returned a CC50 in data set [3] of 25.5 µM.
`O=[N+]([O-])/C=C/c1cccc(Cl)c1` gave an inhibition in data set [1] of 49.8%. The compound also yielded an IC50 in data set [2] of over 1090 µM. Moreover, the half-maximal cytotoxic concentration (CC50) in data set [3] is 4.6 µM.
`O=[N+]([O-])/C=C/c1ccc(Br)cc1` came in with an inhibition in data set [1] of 20.3%. Moreover, the CC50 in data set [3] was determined as 13.6 µM.
Turning to `CC(=O)N/C=C/c1cc(C)c(C)cc1C`, in data set [1], the inhibition turned out to be 25.4%.
As for `COc1ccccc1/C=C/[N+](=O)[O-]`, the inhibition in data set [1] is 99.7%. In data set [2], inhibition was half-maximal at 225 µM (IC50). The same compound returned a half-maximal cytotoxic concentration (CC50) in data set [3] of 5 µM.
`CC(=O)N/C=C/c1ccccc1` returned an inhibition in data set [1] of 22.2%.
Consider `CC(=O)N/C=C/c1ccc(O)cc1`, for which the result in data set [1] was inactive.
Compound `CC(=O)N/C=C/c1ccccc1Cl` came in with an inhibition in data set [1] of 34%. Also, in data set [4], the selectivity ratio was 2.4. Further, in data set [5], the concentration for a half-maximal effect (EC50) turned out to be 124 µM. This compound came in with a CC50 in data set [3] of 297 µM.
For the compound `Cc1ccc(/C=C/[N+](=O)[O-])cc1`, in data set [1], the inhibition amounted to 36.9%. The compound also showed a CC50 in data set [3] of 15.2 µM.
Regarding `CC(=O)N/C=C/c1ccccc1Br`, in data set [1], the inhibition worked out at 54.4%. The selectivity ratio in data set [4] came out at 1.8. Moreover, the EC50 in data set [5] amounted to 134 µM. This compound returned a 50% cytotoxic concentration (CC50) in data set [3] of 241 µM.
As to `CC(=O)N/C=C/c1ccc(C(F)(F)F)cc1`, the result in data set [1] was inactive.
`CC(=O)N/C=C/c1cccc(Cl)c1`: the inhibition in data set [1] was determined as 10.7%.
For `COc1cc(OC)c(OC)cc1/C=C/NC(C)=O`, the result in data set [1] was inactive.
Compound `O=[N+]([O-])/C=C/c1cccc2ccccc12` registered an inhibition in data set [1] of 81.4%. Further, the midpoint of inhibition in data set [2], the IC50, lay at 786 µM. In data set [3], this compound gave a half-maximal cytotoxic concentration (CC50) of 39.6 µM.
`CC(=O)N(C)/C=C/c1ccccc1C` yielded an inhibition in data set [1] of 79.8%. Moreover, the selectivity ratio in data set [4] stood at 5.2. For the same compound, in data set [5], the EC50 was found to be 116 µM. In data set [2], this compound displayed an IC50 of 487 µM. In data set [3], this compound came in with a cytotoxic concentration (CC50) of 609 µM.
As for `CC(=O)N/C=C/c1ccc(C)cc1`, in data set [1], the inhibition was found to be 16.6%.
Consider `CC(=O)N/C=C/c1ccc2ccccc2c1`, for which the inhibition in data set [1] was found to be 30.1%. Further, the selectivity ratio in data set [4] stood at 3.1. Moreover, in data set [5], the EC50 was found to be 49.7 µM. The CC50 in data set [3] turned out to be 154 µM.

Source of the values: ChEMBL document CHEMBL1145437, “Synthesis and biological evaluation of N-acetyl-beta-aryl-1,2-didehydroethylamines as new HIV-1 RT inhibitors in vitro” (Bioorg Med Chem Lett, 2007).
